Experimental data: publication PMC12649225, “Machine Learning-Identified Potent Antimicrobial Peptides Against Multidrug-Resistant Bacteria and Skin Infections” (Antibiotics, 2025)
Residues, ends and D or L forms follow the SMILES beside them.

What was measured:
MDR ESKAPE pathogens = assay: Bactericidal activity (LC99.9), statements for the whole panel; type: cell-based
Method: (§1) The bacterial strains used in this study included S. aureus JAR060131 [54] and the MDR ESKAPE pathogens Enterococcus faecium LUH15122, S. aureus LUH14616, Klebsiella pneumoniae LUH15104, A. baumannii RUH875 [55], Pseudomonas aeruginosa LUH15103, Enterobacter cloacae LUH15114, and the colistin-resistant Escherichia coli LUH15117. Before each experiment, bacteria from frozen stocks were cultured at 37 °C for 18–24 h on sheep blood agar plates (BioMérieux, Marcy-l’Étoile, France). All strains were then cultured from colonies either in tryptic soy broth (TSB; Oxoid, Basingstoke, UK) for A. baumannii, S. aureus, and E. faecium, or in brain heart infusion broth (BHI; Oxoid) for K. pneumoniae, P. aeruginosa, E. cloacae, and E. coli at 37 °C with shaking at 120 rpm for 18–24 h. Subsequently, bacteria were cultured to mid-logarithmic phase in the media described above at 37 °C with shaking at 120 rpm for 3 h. Bacteria were then washed twice with PBS and diluted to the required inoculum suspension concentration in Roswell Park Memorial Institute (RPMI)-1640 medium containing 20 mM HEPES and L-glutamine but without sodium bicarbonate (Sigma-Aldrich; hereafter referred to as RPMI), based on optical density at 620 nm. RPMI was selected because it supports bacterial growth without impairing AMP activity.
(§2) Bactericidal activity was assessed as described by de Breij et al.. Briefly, mid-logarithmic phase bacterial cultures were diluted to a final concentration of 1 × 10^7 colony-forming units (CFU)/mL in RPMI. Then, 10 µL was added to a final volume of 100 µL in RPMI (final concentration: 1 × 10^6 CFU/mL). Cultures were exposed to peptides either in RPMI or RPMI supplemented with 50% (v/v) human plasma (hereafter referred to as 50% plasma), obtained from four healthy volunteers after informed consent, frozen after collection, and pooled (Sanquin, Amsterdam, The Netherlands). Assays were performed in duplicate using round-bottom polypropylene microtiter plates (Costar, Arlington, VA, USA) and repeated three times. In the initial screening phase (Table 1, Table 2 and Table S1), peptide solutions of 1, 10, and 100 μM (final concentration) were tested against A. baumannii RUH875 and S. aureus JAR060131 in RPMI and in 50% plasma. After this selection process, two lead candidates, their RI variants, and reference peptides were tested with a final concentration range of 0.12 to 120 µM (two-fold dilutions) in RPMI and in 50% plasma (Table 3). The peptides were also tested against ESKAPE pathogens, with Synthetic Antimicrobial and Antibiofilm Peptide (SAAP)-148 as a reference peptide (Table 4).RPMI or 50% plasma served as no-treatment controls. After 2 and 18 h of incubation at 37 °C with shaking at 120 rpm in a humidified environment, the numbers of viable bacteria were quantified. Bactericidal activity was expressed as the lethal concentration 99.9% (LC99.9), defined as the lowest peptide concentration that killed ≥99.9% of bacteria within 2 h (LC99.9_2h) or 18 h (LC99.9_18h) compared to the initial inoculum.

S. aureus JAR060131 [1] = assay: SYTOX Green membrane permeabilization assay; type: cell-based, Staphylococcus aureus; settings: RPMI, 1 μM SYTOX Green; 90 min; 37 °C
Method: (§3) Control samples were exposed to RPMI only. As a positive control, heat-killed bacteria were incubated at 95 °C for 10 min to induce maximum membrane permeabilization. Fluorescence (excitation: 485 nm, emission: 520 nm) was monitored every minute for 90 min at 37 °C using a […] plate reader (Ortenberg, Germany), with peptides and positive controls added after the third cycle. Background fluorescence (SYTOX Green alone) was subtracted from all values. All assays were performed in triplicate and repeated twice independently.

E. cloacae LUH15114 = type: cell-based; settings: for LC99.9 E. cloacae LUH15114 50% Plasma 2 h / LC99.9 E. cloacae LUH15114 RPMI 2 h: LUH15114, 2 h
Method: as §1, §2

E. coli LUH15117 = type: cell-based; settings: for LC99.9 E. coli LUH15117 RPMI 2 h: LUH15117, 2 h; for LC99.9 E. coli LUH15117 RPMI 18 h: LUH15117, 18 h
Method: as §1, §2

A. baumannii RUH875 [2] = type: cell-based; settings: for LC99.9 A. baumannii RUH875 50% Plasma 18 h: RUH875, 18 h
Method: as §1, §2

S. aureus JAR060131 [3] = type: cell-based; settings: for LC99.9 S. aureus JAR060131 50% Plasma 18 h: JAR060131, 18 h
Method: as §1, §2

E. faecium LUH15122 = type: cell-based; settings: for LC99.9 E. faecium LUH15122 50% Plasma 18 h / LC99.9 E. faecium LUH15122 RPMI 18 h: LUH15122, 18 h
Method: as §1, §2

P. aeruginosa LUH15103 = type: cell-based; settings: for LC99.9 P. aeruginosa LUH15103 50% Plasma 2 h / LC99.9 P. aeruginosa LUH15103 RPMI 2 h: LUH15103, 2 h; for LC99.9 P. aeruginosa LUH15103 50% Plasma 18 h / LC99.9 P. aeruginosa LUH15103 RPMI 18 h: LUH15103, 18 h
Method: as §1, §2

S. aureus LUH14616 = type: cell-based
Method: as §1, §2

K. pneumoniae LUH15104 = type: cell-based; settings: for LC99.9 K. pneumoniae LUH15104 50% Plasma 2 h / LC99.9 K. pneumoniae LUH15104 RPMI 2 h: LUH15104, 2 h; for LC99.9 K. pneumoniae LUH15104 50% Plasma 18 h / LC99.9 K. pneumoniae LUH15104 RPMI 18 h: LUH15104, 18 h
Method: as §1, §2

A. baumannii RUH875 [4] = assay: SYTOX Green membrane permeabilization assay; type: cell-based, Acinetobacter baumannii; settings: 1- and 2-fold the LC99.9_2h concentrations; over 90 min; RPMI, 1 μM SYTOX Green
Method: as §3

| Structure (SMILES) | Concentrations causing rapid rise in SYTOX fluorescence, S. aureus (S. aureus JAR060131 [1]) [µM] | LC99.9 E. cloacae LUH15114 50% Plasma 2 h (E. cloacae LUH15114) [µM] | LC99.9 E. cloacae LUH15114 RPMI 2 h (E. cloacae LUH15114) [µM] | LC99.9 E. coli LUH15117 RPMI 2 h (E. coli LUH15117) [µM] | LC99.9 E. coli LUH15117 RPMI 18 h (E. coli LUH15117) [µM] | LC99.9 A. baumannii RUH875 50% Plasma 18 h (A. baumannii RUH875 [2]) [µM] | LC99.9 S. aureus JAR060131 50% Plasma 2 h (S. aureus JAR060131 [3]; JAR060131, 2 h) [µM] | LC99.9 S. aureus JAR060131 50% Plasma 18 h (S. aureus JAR060131 [3]) [µM] | LC99.9 E. faecium LUH15122 RPMI 2 h (E. faecium LUH15122; LUH15122, 2 h) [µM] | LC99.9 E. faecium LUH15122 50% Plasma 18 h (E. faecium LUH15122) [µM] | LC99.9 E. faecium LUH15122 RPMI 18 h (E. faecium LUH15122) [µM] | LC99.9 P. aeruginosa LUH15103 50% Plasma 2 h (P. aeruginosa LUH15103) [µM] | LC99.9 P. aeruginosa LUH15103 RPMI 2 h (P. aeruginosa LUH15103) [µM] | LC99.9 P. aeruginosa LUH15103 50% Plasma 18 h (P. aeruginosa LUH15103) [µM] | LC99.9 P. aeruginosa LUH15103 RPMI 18 h (P. aeruginosa LUH15103) [µM] | LC99.9 S. aureus LUH14616 50% Plasma 2 h (S. aureus LUH14616; LUH14616, 2 h) [µM] | LC99.9 S. aureus LUH14616 RPMI 18 h (S. aureus LUH14616; LUH14616, 18 h) [µM] | LC99.9 K. pneumoniae LUH15104 50% Plasma 2 h (K. pneumoniae LUH15104) [µM] | LC99.9 K. pneumoniae LUH15104 RPMI 2 h (K. pneumoniae LUH15104) [µM] | LC99.9 K. pneumoniae LUH15104 50% Plasma 18 h (K. pneumoniae LUH15104) [µM] | further results |
| --- | --- | --- | --- | --- | --- | --- | --- | --- | --- | --- | --- | --- | --- | --- | --- | --- | --- | --- | --- | --- | --- |
| CC[C@@H](C)[C@@H](NC(=O)[C@@H](C)NC(=O)[C@@H](CCCCN)NC(=O)[C@@H](CCCCN)NC(=O)[C@@H](Cc1c[nH]c2ccccc12)NC(=O)[C@@H](Cc1c[nH]c2ccccc12)NC(=O)[C@@H](CCCNC(=N)N)NC(=O)[C@@H](CC(C)C)NC(=O)[C@@H](CC(C)C)NC(C)=O)C(=O)N[C@H](CCCCN)C(=O)N[C@@H](C(=O)N[C@H](Cc1c[nH]c2ccccc12)C(=O)N[C@H](CCCNC(=N)N)C(=O)N[C@H](CCCCN)C(N)=O)C(C)C [GDST-038-RI] (HELM PEPTIDE1{[ac].[dL].[dL].[dR].[dW].[dW].[dK].[dK].[dA].[dI].[dK].[dV].[dW].[dR].[dK].[am]}$$$$V2.0; N-terminus and C-terminus assumed) | 1.88 to 3.75 | 60 | 30 | 3.75 | 0.94 | 0.94 | 3.75 | 3.75 | 3.75 | 3.75 | 0.94 | 30 | 15 | 15 | 7.5 | 30 | 0.47 | 15 | 15 | 3.75 | Concentrations required for E. cloacae, S. aureus and P. aeruginosa in 50% plasma within 2 h (MDR ESKAPE pathogens; 50% plasma, 2 h, range over the three species): 30 to 60 µM; LC99.9 K. pneumoniae LUH15104 RPMI 18 h (K. pneumoniae LUH15104): 7.5 µM; SYTOX fluorescence intensity, A. baumannii (A. baumannii RUH875 [4]): fluorescence levels similar to heat-killed controls |
| CC[C@@H](C)[C@@H](NC(=O)[C@@H](CC(C)C)NC(=O)[C@@H](CCCCN)NC(=O)[C@@H](CCCCN)NC(=O)[C@H](NC(=O)[C@@H](Cc1c[nH]c2ccccc12)NC(=O)[C@@H](CCCNC(=N)N)NC(=O)[C@@H](Cc1ccccc1)NC(=O)[C@@H](CC(C)C)NC(C)=O)C(C)C)C(=O)N[C@H](CCCCN)C(=O)N[C@@H](C(=O)N[C@H](Cc1c[nH]c2ccccc12)C(=O)N[C@H](CCCNC(=N)N)C(=O)N[C@H](CCCCN)C(N)=O)C(C)C [GDST-045-RI] (HELM PEPTIDE1{[ac].[dL].[dF].[dR].[dW].[dV].[dK].[dK].[dL].[dI].[dK].[dV].[dW].[dR].[dK].[am]}$$$$V2.0; N-terminus and C-terminus assumed) | 1.88 to 3.75 | 120 | 15 | 3.75 | 1.88 | 0.94 | 3.75 | 1.88 | 0.94 | 3.75 | 0.94 | 30 | 3.75 | 30 | 3.75 | 15 | 0.94 | 15 | 15 | 7.5 | Concentrations killing ESKAPE pathogens in 50% plasma within 2 h (MDR ESKAPE pathogens; 50% plasma, 2 h, range over species): 0.94 to 120 µM; Concentrations killing ESKAPE pathogens in 50% plasma after 18 h (MDR ESKAPE pathogens; 50% plasma, 18 h, range over species): 0.94 to 30 µM; Concentrations killing ESKAPE pathogens in RPMI within 2 h (MDR ESKAPE pathogens; RPMI, 2 h, range over species): 0.94 to 15 µM; LC99.9 E. cloacae LUH15114 50% Plasma 18 h (E. cloacae LUH15114; LUH15114, 18 h): 30 µM; LC99.9 E. cloacae LUH15114 RPMI 18 h (E. cloacae LUH15114; LUH15114, 18 h): 3.75 µM; LC99.9 A. baumannii RUH875 50% Plasma 2 h (A. baumannii RUH875 [2]; RUH875, 2 h): 1.88 µM; LC99.9 S. aureus JAR060131 RPMI 2 h (S. aureus JAR060131 [3]; JAR060131, 2 h): 1.88 µM; LC99.9 E. faecium LUH15122 50% Plasma 2 h (E. faecium LUH15122; LUH15122, 2 h): 1.88 µM; LC99.9 S. aureus LUH14616 RPMI 2 h (S. aureus LUH14616; LUH14616, 2 h): 0.94 µM; LC99.9 S. aureus LUH14616 50% Plasma 18 h (S. aureus LUH14616; LUH14616, 18 h): 1.88 µM; LC99.9 K. pneumoniae LUH15104 RPMI 18 h (K. pneumoniae LUH15104): 7.5 µM; SYTOX fluorescence intensity, A. baumannii (A. baumannii RUH875 [4]): fluorescence levels similar to heat-killed controls |
